Test results from patent US7468375B2 (Pfizer Inc., priority 2004, dated 2008).
Read-outs that look alike come from different tables or passages of the source.

Columns and labels:
[1] = target: T1, Full-length wild type HIV-1 integrase (SF1) (Human immunodeficiency virus type 1 group M subtype B, UniProt P04585); assay: Integrase strand-transfer scintillation proximity assay; assay type: biochemical; details: strand transfer, 50 min at 37° C., 246 nM integrase, 50 nM host DNA; read-out: IC50
T1 construct: made in house; host or cells: E. coli BL21 (DE3)
Excerpt: Integrase Strand-Transfer Scintillation Proximity Assay Oligonucleotides
Oligonucleotide #1-5′-(biotin)[…]-3′ (SEQ ID NO: 1) and oligonucleotide #2-5′-[…]-3′ (SEQ ID NO: 2), were synthesized by TriLink BioTechnologies, Inc. (San Diego, Calif.). The annealed product represents preprocessed viral ds-DNA derived from the LTR U5 sequence of the viral genome. A ds-DNA control to test for non-specific interactions was made using a 3′ di-deoxy derivative of oligonucleotide #1 annealed to oligonucleotide #2. The CA overhang at the 5′ end of the non-biotinylated strand of the ds-DNA was created artificially by using a complimentary DNA oligonucleotide shortened by 2 base pairs. This configuration eliminates the requisite 3′ processing step of the integrase enzyme prior to the strand-transfer mechanism. Host ds-DNA was prepared as an unlabeled and [^3H]-thymidine labeled product from annealed oligonucleotide #3-5-[…]-3′ (SEQ ID NO: 3), and oligonucleotide #4-5′-[…]-3′ (SEQ ID NO: 4), both synthesized by TriLink BioTechnologies, Inc. (San Diego, Calif.). The annealed product had overhanging 3′ ends of poly(dA). Host DNA was custom radiolabeled by PerkinElmer Life Sciences Inc. (Boston, Mass.) using an enzymatic method with a 12/1 ratio of [methyl-3H]dTTP/cold ds-DNA to yield 5′-blunt end ds-DNA with a specific activity of >900 Ci/mmol. The radiolabeled product was purified using a NENSORB cartridge and stored in stabilized aqueous solution (PerkinElmer). The final radiolabeled product had six [^3H]-thymidine nucleotides at both 5′ ends of the host ds-DNA. Reagents: Streptavidin-coated polyvinyltoluene (PVT) SPA beads were purchased from Amersham Biosciences (Piscataway, N.J.). Cesium chloride was purchased from Shelton Scientific, Inc. (Shelton, Conn.). White, polystyrene, flat-bottom, non-binding surface, 96-well plates were purchased from Corning. All other buffer components were purchased from Sigma (St. Louis, Mo.) unless otherwise indicated.
Enzyme Construction: Full-length wild type HIV-1 integrase (SF1) sequence (amino acids 1-288) was constructed in a pET24a vector (Novagen, Madison, Wis.). The construct was confirmed through DNA sequencing. Enzyme Purification: Full length wild-type HIV Integrase was expressed in E. coli BL21 (DE3) cells and induced with 1 mM isopropyl-1 thio-β-D-galactopyranoside (IPTG) when cells reached an optical density between 0.8-1.0 at 600 nm. Cells were lysed by microfluidation in 50 mM HEPES pH 7.0, 75 mM NaCl, 5 mM DTT, 1 mM 4-(2-Aminoethyl)benzenesulfonylfluoride HCl (AEBSF). Lysate was then centrifuged 20 minutes at 11 k rpm in GSA rotor in Sorvall RC-5B at 4° C. Supernant was discarded and pellet resuspended in 50 mM HEPES pH 7.0, 750 mM NaCl, 5 mM DTT, 1 mM AEBSF and homogenized in a 40 mL Dounce homogenizer for 20 minutes on ice. Homogenate was then centrifuged 20 minutes at 11 k rpm in SS34 rotor in Sorvall RC-5B at 4° C. Supernant was discarded and pellet resuspended in 50 mM HEPES pH 7.0, 750 mM NaCl, 25 mM CHAPS, 5 mM DTT, 1 mM AEBSF. Preparation was then centrifuged 20 minutes at 11 k rpm in SS34 rotor in Sorvall RC-5B at 4° C. Supernant was then diluted 1:1 with 50 mM HEPES pH 7.0, 25 mM CHAPS, 1 mM DTT, 1 mM AEBSF and loaded onto a Q-Sepharose column pre-equilibrated with 50 mM HEPES, pH 7.0, 375 mM NaCl, 25 mM CHAPS, 1 mM DTT, 1 mM AEBSF. The flow through peak was collected and NaCl diluted to 0.1 M with 50 mM HEPES pH 7.0, 25 mM CHAPS, 1 mM DTT, 0.5 mM AEBSF and loaded onto a SP-Sepharose column pre-equilibrated with 50 mM HEPES pH 7.0, 100 mM NaCl, 25 mM CHAPS, 1 mM DTT, 0.5 mM AEBSF. After washing the column with the equilibration buffer, a 100 to 400 mM NaCl gradient was run. The eluted integrase was concentrated and run on a S-300 gel diffusion column using 50 mM HEPES pH 7.0, 500 mM NaCl, 25 mM CHAPS, 1 mM DTT, 0.5 mM AEBSF. The peak from this column was concentrated to 0.76 mg/mL and stored at −70° C. and later used for strand transfer assays. […]

[2] = tested on: RF strain of HIV-1 in CEM-SS cells; assay: HIV-1 cell protection assay (XTT dye reduction); assay type: cell-based
Experimental: HIV-1 Cell Protection Assay
The antiviral activities of potential modulator compounds (test compounds) were determined in HIV-1 cell protection assays using the RF strain of HIV-1, CEM-SS cells, and the XTT dye reduction method (Weislow, O. S. et al., J. Natl. Cancer Inst. 81: 577-586 (1989)). Subject cells were infected with HIV-1 RF virus at an moi of 0.025 to 0.819 or mock infected with medium only and added at 2×10^4 cells per well into 96 well plates containing half-log dilutions of test compounds. Six days later, 50 μl of XTT solution (1 mg/ml XTT tetrazolium and […] phenazine methosulfate) were added to the wells and the plates were reincubated for four hours. Viability, as determined by the amount of XTT formazan produced, was quantified spectrophotometrically by absorbance at 450 nm. Data from CPE assays were expressed as the percent of formazan produced in compound-treated cells compared to formazan produced in wells of uninfected, compound-free cells. […] The therapeutic index was calculated by dividing the cytotoxicity (CC50) by the antiviral activity (EC50).

[3] = Human immunodeficiency virus 1, CEM-SS, 144 h, HIV-1 RF, CEM-SS cells, XTT dye reduction, six days, read-out: EC50
[4] = Human immunodeficiency virus 1, CEM-SS, 144 h

Row | Compound | IC50 [1] [nM] | EC50 [2, 3] [nM] | EC50 ([2]; HIV-1 RF, CEM-SS cells, XTT dye reduction, six days, read-out: EC50) [nM] | EC50 [2, 4] [nM]
1 | CONC(=O)c1cc2c(CN3CC[C@@H]4C(=O)NC[C@@H]4C3)cn(Cc3ccc(F)cc3F)c2cn1 (racemic) [Example 17, rac 1-(2,4-Difluorobenzyl)-N-methoxy-3-{[(3aR*,7aS*)-1-oxooctahydro-5H-pyrrolo[3,4-c]pyridin-5-yl]methyl}-1H-pyrrolo[2,3-c]pyridine-5-carboxamide] | 300 | 25 |  | 
2 | CC(C)OCCCNCc1cn(Cc2ccc(F)cc2F)c2cnc(C(=O)NO)cc12 [Example 83, 1-(2,4-Difluorobenzyl)-N-hydroxy-3-H{[(3-isopropoxypropyl)amino]methyl}-1H-pyrrolo[2,3-c]pyridine-5-carboxamide] | 952 | 60 |  | 
3 | CCN1CCCC1CNCc1cn(Cc2ccc(F)cc2F)c2cnc(C(=O)NO)cc12 (stereo not shown) [Example 45, 1-(2,4-Difluorobenzyl)-3-({[(1-ethylpyrrolidin-2-yl)methyl]amino}methyl)-N hydroxy-1H-pyrrolo[2,3-c]pyridine-5-carboxamide] | 295 |  | 51 | 
4 | CN1CCN(Cc2cn(Cc3ccc(F)cc3F)c3cnc(C(=O)NO)cc23)CC1 [Example 5, 1-(2,4-Difluorobenzyl)-N-hydroxy-3-[(4-methylpiperazin-1-yl)methyl]-1H pyrrolo[2,3-c]pyridine-5-carboxamide] | 153 | 13 |  | 
5 | O=C(NO)c1cc2c(CNCc3ccc(OC(F)F)cc3)cn(Cc3ccc(F)cc3F)c2cn1 [Example 94, 1-(2,4-Difluorobenzyl)-3-({[4-(difluoromethoxy)benzyl]amino}methyl)-N-hydroxy-1H-pyrrolo[2,3-c]pyridine-5-carboxamide] | 288 | 26 |  | 
6 | CC1CCCN1Cc1cn(Cc2ccc(F)cc2F)c2cnc(C(=O)NO)cc12 (stereo not shown) [Example 81, 1-(2,4-Difluorobenzyl)-N-hydroxy-3-[(2-methylpyrrolidin-1-yl)methyl]-1H-pyrrolo[2,3-c]pyridine-5-carboxamide] | 499 | 40 |  | 
7 | O=C(NO)c1cc2c(CNCC(O)c3ccccc3)cn(Cc3ccc(F)cc3F)c2cn1 (stereo not shown) [Example 84, 1-(2,4-Difluorobenzyl)-N-hydroxy-3-{[(2-hydroxy-2-phenylethyl)amino]methyl}-1H-pyrrolo[2,3-c]pyridine-5-carboxamide] | 316 | 51 |  | 
8 | O=C(NO)c1cc2c(CNc3cccnc3)cn(Cc3ccc(F)cc3F)c2cn1 [Example 11, 1-(2,4-Difluorobenzyl)-N-hydroxy-3-[(pyridin-3-ylamino)methyl]-1 pyrrolo[2,3-c]pyridine-5-carboxamide] | 37 | 15 |  | 
9 | CONC(=O)c1cc2ncn(Cc3ccc(F)cc3)c2cn1 [Example 22, 3-(4-Fluorobenzyl)-N-methoxy-3H-imidazo[4,5-c]pyridine-6-carboxamide] | 1300 | 190 |  | 
10 | CN(O)C(=O)c1cc2c(CN3CC[C@@H]4CNC(=O)[C@@H]4C3)cn(Cc3ccc(F)cc3F)c2cn1 (relative stereo) [Example 112] | 62 | 597 |  | 
11 | O=C(NO)c1cc2ccn(CCC3CCCCC3)c2cn1 [Example 26, 1-(2-Cyclohexylethyl)-N-hydroxy-1H-pyrrolo[2,3-c]pyridine-5-carboxamide] | 770 | 3700 |  | 
12 | CN1CCN(CCCNCc2cn(Cc3ccc(F)cc3F)c3cnc(C(=O)NO)cc23)CC1 [Example 52, 1-(2,4-Difluorobenzyl)-N-hydroxy-3-({[3-(4-methylpiperazin-1-yl)propyl]amino}methyl)-1H-pyrrolo[2,3-c]pyridine-5-carboxamide] | 781 | 260 |  | 
13 | COCCOCc1cn(Cc2ccc(F)cc2F)c2cnc(C(=O)N(C)O)cc12 [Example 123, 1 (2,4-Difluorobenzyl)-N-hydroxy-3-[(2-methoxyethoxy)methyl]-N-methyl-1H-pyrrolo[2,3-c]pyridine-5-carboxamide] | 51 |  |  | 519
14 | O=C(NO)c1cc2c(CNCCC3CCOCC3)cn(Cc3ccc(F)cc3F)c2cn1 [Example 96, 1-(2,4-Difluorobenzyl)-N-hydroxy-3-({[2-(tetrahydro-2H-pyran-4-yl)ethyl]amino}methyl)-1H-pyrrolo[2,3-c]pyridine-5-carboxamide] | 511 | 30 |  | 
15 | CN(O)C(=O)c1cc2c(COC[C@@H]3COC(C)(C)O3)cn(Cc3ccc(F)cc3)c2cn1 [Example 110, 3-({[(4R)-2,2-Dimethyl-1,3-dioxolan-4-yl]methoxy}methyl)-1-(4-fluorobenzyl)-N-hydroxy-N-methyl-1H-pyrrolo[2,3-c]pyridine-5-carboxamide] | 14 |  |  | 341
16 | O=C(NO)c1cc2c(CNC3CCOCC3)cn(Cc3ccc(F)cc3F)c2cn1 [Example 91, 1-(2,4-Difluorobenzyl)-N-hydroxy-3-[(tetrahydro-2H-pyran-4-ylamino)methyl]-1H-pyrrolo[2,3-c]pyridine-5-carboxamide] | 519 | 28 |  | 
17 | O=C(NO)c1cc2c(CNCCOCCO)cn(Cc3ccc(F)cc3F)c2cn1 [Example 58, 1-(2,4-Difluorobenzyl)-N-hydroxy-3-({[2-(2-hydroxyethoxy)ethyl]amino}methyl)-1H-pyrrolo[2,3-c]pyridine-5-carboxamide] | 585 | 100 |  | 
18 | COCc1c(C(=O)NO)ncc2c1ccn2Cc1ccc(F)cc1F [Example 19, 1-(2,4-Difluorobenzyl)-N-hydroxy-4-(methoxymethyl)-1-H-pyrrolo[2,3-c]pyridine-5-carboxamide] | 218 | 48 |  | 
19 | CN(O)C(=O)c1cc2cnn(Cc3ccc(F)cc3)c2cn1 [Example 36, 1-(4-Fluorobenzyl)-N-hydroxy-N-methyl-1H-pyrazolo[3,4-c]pyridine-5-carboxamide] | 811 | 390 |  | 
20 | O=C(NO)c1cc2c(CN3CCCCC3)cn(Cc3ccc(F)cc3F)c2cn1 [Example 6, 1-(2,4-difluorobenzyl)-N-hydroxy-3-(piperidin-1-ylmethyl)-1H-pyrrolo[2,3-c]pyridine-5-carboxamide] | 108 | 5.2 |  | 
